The conditions of data set [1]: cited from earlier work.
For data set [2] the following is noted: human, in vivo.
The test system of another data set is CAII. As to conditions: high affinity RBC isoform; cited from earlier work.
The conditions of data set [3]: human, in vivo. This is another data set of the same source.
Data set [4] can be described thus: clinical. The following applies: human, in vivo.
Data set [5] can be described thus: clinical. The following applies: human, in vivo. This is another data set of the same source.
The conditions of data set [6]: human, in vivo. This is another data set of the same source.
In a further data set the test system is CAI. As to conditions: low affinity RBC isoform; cited from earlier work.
Data set [7] is described as follows: clinical. As to conditions: human, in vivo. This is another data set of the same source.
The conditions of data set [8]: oxycodone 30 mg p.o.
[9] abbreviates: noroxycodone in plasma after oxycodone + ACZ, Day 5.
The mark [10] stands for this setting: noroxycodone in plasma after oxycodone alone, Day 1.
[11] abbreviates: noroxycodone in plasma after oxycodone alone, Day 8.
[12] abbreviates: therapeutic dose of ~400 mg ACZ/day.

Several values for one entry are separate records, joined by “and”; a condition that tells them apart may be missing. Identical values can stand only once. Like-named read-outs stand apart in the source and are kept apart here.

The term Cmax denotes the highest concentration seen after dosing. The Tmax is the time from dosing to the highest level. A word on the half-life: it is the time needed for the level to fall by half in the phase considered. Regarding `COc1ccc2c3c1O[C@H]1C(=O)CC[C@@]4(O)[C@@H](C2)NCC[C@]314` [Noroxycodone], under setting [9], the “Area under Curve” value is 218 ng·h/mL, the Cmax amounted to 30 ng/mL, the Tmax was determined as 0.9 h and the half-life is 5.0 h. For the same molecule, under setting [10], the maximum concentration (Cmax) stood at 34.9 ng/mL, the time of peak concentration (Tmax) turned out to be 0.9 h and the half-life was 4.3 h. Further, under setting [11], the “Area under Curve” value amounted to 213 ng·h/mL, the Cmax worked out at 30.2 ng/mL, the Tmax was determined as 0.9 h and the half-life worked out at 4.7 h. Also, the “Area under Curve” value (noroxycodone metabolite in plasma after oxycodone alone, Day 1, one-compartment) worked out at 224 ng·h/mL. In addition, where the note is “presence or absence of ACZ”, the “Effect of ACZ on noroxycodone PK parameters” value is recorded as “no differences in any of the PK parameters”.
For `CC(=O)Nc1nnc(S(N)(=O)=O)s1` [ACZ, Acetazolamide], the “RBC concentration with which side effects correlate” value in data set [1] (therapeutic (~400 mg / day) doses) is reported as “exceed 90 µM”. For the same molecule, in [1] (setting [12]), the “Mean RBC concentration” value is 121 ± 46 µM. In addition, the Mean plasma concentration in [1] (setting [12]) was 51 ± 40 µM. Further, the highest concentration (Cmax) in data set [2] is 1285 ng/mL; in “clinical [4]” (Cmax), 1310 ng/mL; in “clinical [4]” (Plasma Cmax) it was 660 ng/mL; in “clinical [5]” (Blood Cmax), 776 ng/mL; in the data set “clinical [5]” (RBCs (minus residuum) Cmax) it was 636 ng/mL; in “clinical [5]” (RBCs (total) Cmax), 1790 ng/mL. In “clinical [5]” (RBCtotal Cmax), this molecule displayed a Cmax of 17 ± 1 µM. Also, the “Plasma Area under Curve” value in [2] came to 5568 ng/mlblood*h. In addition, the “Time of plasma maximum concentration (Cmax) after administration” value in data set [2] is given as ≤ 1 h. For the same molecule, the Tmax in data set [2] was found to be 0.5 h; in the data set “clinical [4]” (Plasma Tmax) it was 1 h; in “clinical [4]” (Tmax) it was 1 h; in the data set “clinical [5]” (Blood Tmax), 4.8 h; in the data set “clinical [5]” (RBCs (minus residuum) Tmax), 7.5 h; in “clinical [7]”, 7.2 h. In the data set on CAII, the “Maximum ACZ binding capacity” value was 17 µM. Further, the “Urinary excretion rate Cmax” value in data set [3] was 669 µg/h. Also, in data set [3] (48 h), the “Slowest individual urinary elimination rate (low outlier)” value is given as 87 µg/h. In addition, the “Fastest individual urinary elimination rate (high outlier)” value in [3] (96 h) is 33 µg/h. Besides, the “Blood Area under Curve” value in data set [6] is 52130 ng/ml*h. In addition, the “RBCs (minus residuum) Area under Curve” value in [6] is listed as 49555 ng/mlblood*h. Also, the “RBCs (total) Area under Curve” value in [6] is 133107 ng/mlblood*h. Besides, the Max binding capacity with CAI was 155 µM.
For the molecule `COc1ccc2c3c1O[C@H]1C(=O)CC[C@@]4(O)[C@@H](C2)N(C)CC[C@]314` [Oxycodone], the Tmax reads like this: (human, in vivo, 30 mg) 1 h; (oxycodone alone, Day 8, plasma) 1.0 h. In addition, the maximum concentration (Cmax) (human, in vivo, 30 mg, Cmax, oxycodone alone, Day 1, plasma) was determined as 61.6 ng/mL; the Cmax (human, in vivo, 30 mg, Cmax, oxycodone alone, Day 8, plasma) was 68.5 ng/mL; the Cmax (human, in vivo, Cmax, oxycodone + ACZ, Day 5, plasma) stood at 71.4 ng/mL. The half-life was 0.14 ± 0.06 h (human, in vivo, 30 mg, α-Half-life, oxycodone alone, Day 8, plasma); 3.9 h (human, in vivo, 30 mg, β-Half-life, oxycodone alone, Day 1, plasma); 4.1 h (human, in vivo, 30 mg, β-Half-life, oxycodone alone, Day 8, plasma); 0.2 h (human, in vivo, α-Half-life, oxycodone + ACZ 15 mg, Day 5, plasma); 4.1 h (human, in vivo, β-Half-life, oxycodone + ACZ, Day 5, plasma). For the same molecule, the “Area under Curve” value was 341.3 ng·h/mL (oxycodone + ACZ, Day 5, plasma); 281.1 ^♦ h*ng/ml (oxycodone alone, Day 1, plasma); 318.6 ng·h/mL (oxycodone alone, Day 8, plasma). Moreover, the α-Half-life (oxycodone alone, Day 8, plasma) is 0.1 ^♦ h. Also, the “Difference in oxycodone AUC (exposure), Day 5 with ACZ vs Day 1 alone” value (p<0.05, not different from Day 8) is 20% and 20 ± 11%. Besides, in [8], the “Opioid Agonist Checklist scores as rated by subjects and observers” value was “increased scores on an Opioid Agonist Checklist”. Further, in [8], the Pupil diameter entry was “sustained pupil miosis”. Further, in data set [8], the “Ratings on a visual analog scale of drug liking” value is “increased ratings on a visual analog scale of drug liking”.

Source of the values: publication PMC5360176 (Journal of clinical psychopharmacology, 2016).
